The values that follow come from patent publication US12698260B2, “Solid state form of centanafadine HCL and process for preparation thereof” (ASSIA CHEMICAL INDUSTRIES LTD., priority 2021, dated 2026).

Data set [1] can be described thus: Solubility over a range of pH. The settings on record: over a wide range of pH; comparator not stated.
The nature of data set [2]: Solid-state stability upon storage and processing. The settings on record: storage and processing (e.g. grinding, pressure, heat, humidity).

For the compound `c1ccc2cc([C@]34CNC[C@H]3C4)ccc2c1` [(1R,5S)-1-naphthalen-2-yl-3-azabicyclo[3.1.0]hexane], the solubility result in data set [1] is recorded as “improved solubility”. Moreover, the “stability of the crystalline form upon storage and processing” value in data set [2] is “stable crystalline Form upon storage and processing”.
